From ChEMBL document CHEMBL1201862, “PubChem BioAssay data set” (2004)
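Exposure lasted 48 hours, with cells grown in 96-well plates and compounds tested at five concentrations. GI50 marks 50% less growth.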 Activity calls are given as the source filed them. No stated cut-off is given here; in the data, active = GI50 up to about 1.1 µM and inactive = higher.

What was measured:
Test in all cases: NCI anticancer screen, dose series, 48 h
[1] = test system: 786-0
[2] = test system: ACHN
[3] = test system: HCT-116
[4] = test system: HCT-15
[5] = test system: HL-60
[6] = test system: HOP-92
[7] = test system: KM12
[8] = test system: M14
[9] = test system: NCI-H226
[10] = test system: OVCAR-5
[11] = test system: RPMI-8226
[12] = test system: SF-268
[13] = test system: SF-295
[14] = test system: SF-539
[15] = test system: SK-MEL-28
[16] = test system: SK-OV-3
[17] = test system: SW-620
[18] = test system: TK-10
[19] = test system: UACC-62
[20] = test system: MCF7

Structure (SMILES) | GI50 [1] | GI50 [2] | GI50 [3] | GI50 [4] [µM] | GI50 [5] | GI50 [6] | GI50 [7] | GI50 [8] | GI50 [9] | GI50 [10] | GI50 [11] | GI50 [12] | GI50 [13] | GI50 [14] | GI50 [15] | GI50 [16] | GI50 [17] | GI50 [18] | GI50 [19] | GI50 [20]
c1cnc2c3[nH]cc4[nH]c5ccccc5c4c-3nc2c1 | 44.4 µM (inactive) | 61.4 µM (inactive) | 44.7 µM (inactive) | 67.5 | 76 µM (inactive) | 16.9 µM (inactive) | 36.1 µM (inactive) | > 100 µM (inactive) | 48.3 µM (inactive) | > 100 µM (inactive) | 27.6 µM (inactive) | 84.5 µM (inactive) | 47.9 µM (inactive) | 93.3 µM (inactive) | 50.5 µM (inactive) | > 100 µM (inactive) | 55.2 µM (inactive) | > 100 µM (inactive) | > 100 µM (inactive) | –
O=C1/C(=N\O)C2CCC1C2 (stereo unspecified) | > 100 µM (inactive) | > 100 µM (inactive) | > 100 µM (inactive) | > 100 | > 100 µM (inactive) | > 100 µM (inactive) | > 100 µM (inactive) | > 100 µM (inactive) | > 100 µM (inactive) | > 100 µM (inactive) | > 100 µM (inactive) | > 100 µM (inactive) | > 100 µM (inactive) | > 100 µM (inactive) | > 100 µM (inactive) | > 100 µM (inactive) | > 100 µM (inactive) | > 100 µM (inactive) | > 100 µM (inactive) | –
CCOC(=O)[C@]12C(=C(c3ccccc3)O[C@H]3C=CCC[C@H]31)C(=O)C(=O)N2c1ccccc1 | > 100 µM (inactive) | > 100 µM (inactive) | > 100 µM (inactive) | > 100 | – | – | 37.7 µM (inactive) | > 100 µM (inactive) | – | > 100 µM (inactive) | 19.8 µM (inactive) | > 100 µM (inactive) | 98.4 µM (inactive) | > 100 µM (inactive) | – | > 100 µM (inactive) | – | > 100 µM (inactive) | > 100 µM (inactive) | > 100 µM (inactive)
Nc1nc(S)nc(C(=O)Nc2nccs2)c1-c1ccccc1 | > 100 µM (inactive) | > 100 µM (inactive) | > 100 µM (inactive) | > 100 | > 100 µM (inactive) | > 100 µM (inactive) | > 100 µM (inactive) | > 100 µM (inactive) | > 100 µM (inactive) | > 100 µM (inactive) | > 100 µM (inactive) | > 100 µM (inactive) | > 100 µM (inactive) | > 100 µM (inactive) | > 100 µM (inactive) | > 100 µM (inactive) | > 100 µM (inactive) | > 100 µM (inactive) | > 100 µM (inactive) | –
COc1ccc(C2C3=CONC3CC3CCCCC32)cc1 (stereo unspecified) | 46.7 µM (inactive) | 51.5 µM (inactive) | 29.8 µM (inactive) | – | 29.6 µM (inactive) | – | – | 54.5 µM (inactive) | > 100 µM (inactive) | > 100 µM (inactive) | 28.8 µM (inactive) | 79.4 µM (inactive) | – | – | 68.4 µM (inactive) | – | > 100 µM (inactive) | > 100 µM (inactive) | 70.1 µM (inactive) | 12.8 µM (inactive)
O=C1C2=C(SCCS2)C(=O)c2c(Sc3ccc(Cl)cc3)c(Sc3ccc(Cl)cc3)c(Sc3ccc(Cl)cc3)c(Sc3ccc(Cl)cc3)c21 | 78.5 µM (inactive) | > 100 µM (inactive) | > 100 µM (inactive) | > 100 | – | – | > 100 µM (inactive) | 33.8 µM (inactive) | 40.8 µM (inactive) | > 100 µM (inactive) | 51.3 µM (inactive) | > 100 µM (inactive) | 32.5 µM (inactive) | – | – | 94.6 µM (inactive) | > 100 µM (inactive) | – | 23.7 µM (inactive) | > 100 µM (inactive)
